In paper PMC5641347, “Aii810, a Novel Cold-Adapted N-Acylhomoserine Lactonase Discovered in a Metagenome, Can Strongly Attenuate Pseudomonas aeruginosa Virulence Factors and Biofilm Formation” (Frontiers in Microbiology, 2017) one finds Km data, which are given here for one molecule.

This assay has as its system T1, Aii810.
T1 construct: E. coli BL21(DE3), Ni-NTA
In words: p-nitrophenol release at […] nm, Michaelis-Menten fit. Format: biochemical, uncultured bacterium. The settings on record: 20°C, pH 6.5.

Usually Km stands for the substrate concentration at which the rate is half of its maximum.

Take `CC(=O)Oc1ccc([N+](=O)[O-])cc1` [C2, ρ-nitrophenyl acetate]: the Michaelis constant (Km) was 205 µM.
